Broadly, the IC50 is the midpoint of a concentration-inhibition curve. A lower IC50 goes with greater potency in that assay.

SMILES strings stand for the structures.

Sequence of Neuronal acetylcholine receptor; alpha4/beta2 (P09483 whole entry): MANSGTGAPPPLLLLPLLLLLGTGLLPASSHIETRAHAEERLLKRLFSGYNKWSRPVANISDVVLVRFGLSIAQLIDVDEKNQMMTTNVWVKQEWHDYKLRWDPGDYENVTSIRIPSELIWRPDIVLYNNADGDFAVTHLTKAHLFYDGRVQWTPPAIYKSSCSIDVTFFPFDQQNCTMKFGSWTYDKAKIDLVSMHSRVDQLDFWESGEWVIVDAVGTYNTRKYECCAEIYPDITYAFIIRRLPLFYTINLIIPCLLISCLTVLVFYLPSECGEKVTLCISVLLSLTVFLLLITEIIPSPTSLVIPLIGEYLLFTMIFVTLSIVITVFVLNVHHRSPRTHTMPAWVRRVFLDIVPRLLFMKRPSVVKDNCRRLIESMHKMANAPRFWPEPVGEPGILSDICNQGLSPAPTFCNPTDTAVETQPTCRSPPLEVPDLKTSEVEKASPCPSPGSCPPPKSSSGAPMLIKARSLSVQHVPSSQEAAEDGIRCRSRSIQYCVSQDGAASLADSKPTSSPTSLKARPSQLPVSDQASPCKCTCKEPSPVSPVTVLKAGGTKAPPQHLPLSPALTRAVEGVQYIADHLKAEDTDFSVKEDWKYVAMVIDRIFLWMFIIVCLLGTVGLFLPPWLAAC
Sequence of Neuronal acetylcholine receptor; alpha4/beta2 (P12390 whole entry): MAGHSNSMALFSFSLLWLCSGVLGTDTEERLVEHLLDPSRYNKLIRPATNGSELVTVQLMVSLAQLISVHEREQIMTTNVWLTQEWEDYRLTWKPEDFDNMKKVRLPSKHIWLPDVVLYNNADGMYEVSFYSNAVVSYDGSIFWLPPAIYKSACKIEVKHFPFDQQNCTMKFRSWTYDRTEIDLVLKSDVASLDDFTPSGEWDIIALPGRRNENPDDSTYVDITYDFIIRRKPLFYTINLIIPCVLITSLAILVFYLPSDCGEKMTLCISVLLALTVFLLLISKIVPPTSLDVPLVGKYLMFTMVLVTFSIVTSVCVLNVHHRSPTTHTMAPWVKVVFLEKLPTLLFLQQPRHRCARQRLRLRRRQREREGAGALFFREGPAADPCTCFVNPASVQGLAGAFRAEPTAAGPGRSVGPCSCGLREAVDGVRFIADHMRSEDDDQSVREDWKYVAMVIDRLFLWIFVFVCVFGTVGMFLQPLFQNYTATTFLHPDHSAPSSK

The test concerns the target Neuronal acetylcholine receptor; alpha4/beta2 (Rattus norvegicus, UniProt P09483+P12390). As to the kind of experiment: Evaluated for binding affinity towards nicotinic acetylcholine receptor alpha4-beta2. It is filed as protein-complex assay.
With `c1cc(-c2cncc(O[C@@H]3CCNC3)c2)ccn1`, the IC50 is 571 nM. `Clc1cccc(-c2cc(O[C@@H]3CCNC3)cnc2Cl)c1`: the IC50 was 103 nM. In turn, `Clc1cccc(-c2cncc(O[C@@H]3CCNC3)c2)c1` gave an IC50 of 940 nM. On to `Cc1cc(O[C@@H]2CCNC2)cnc1Cl`, for which the IC50 was found to be 64 nM. In turn, `C=Cc1cncc(O[C@@H]2CCNC2)c1` returned a 50% inhibitory concentration (IC50) of 883 nM.

For the compound `c1cncc(OC2CNC2)c1`, the IC50 was greater than 10000 nM. Take `C=Cc1cc(O[C@@H]2CCNC2)cnc1Cl`: the IC50 was 140 nM. Under `CCN1CCC(Oc2cccnc2)C1` (stereo not given) stands greater than 10000 nM; under `c1ccc(-c2cncc(O[C@@H]3CCNC3)c2)cc1`, 1820 nM; under `CC(C)N1CCC(Oc2cccnc2)C1` (stereo not given), greater than 10000 nM. The result for `C#Cc1cncc(O[C@@H]2CCNC2)c1` reads 62 nM.

In turn, `C#Cc1cc(O[C@@H]2CCNC2)cnc1Cl` yielded an IC50 of 46 nM. The compound `Clc1ncc(O[C@@H]2CCNC2)cc1-c1ccncc1` registered an IC50 of 65 nM. Under `Clc1ncc(O[C@@H]2CCNC2)cc1-c1ccccc1` stands 75 nM.

In turn, `N#Cc1ccc(-c2cncc(O[C@@H]3CCNC3)c2)cc1` showed an IC50 of 544 nM.

These data come from ChEMBL document CHEMBL1132874, “Synthesis and structure-activity relationship of novel pyridyl ethers for the nicotinic acetylcholine receptor” (Bioorg Med Chem Lett, 2000).
